Measurements reported in patent publication US20250241873A1, “KETAMINE NASAL SPRAY FORMULATION AND METHODS OF USE” (INESKET LLC, priority 2024, published 2025).
Where two headings read alike, the source gives them in different places.

Tests used:
[1] = Open-label absolute bioavailability / pharmacokinetic study of intranasal ketamine in healthy volunteers; assay type: in vivo, human; conditions: for bioavailability / Absolute Bioavailability (%): relative to IV, dose-corrected ratio of least squares geometric mean AUC(inf); for AUC(0-t): read-out: AUC (0-4 hr)
Description: This was an open-label study in 25 healthy volunteers. Subjects received single doses of ketamine by intravenous (IV) injection (20 mg), intramuscular (IM) injection (20 mg), or intranasal (IN) administration (20 mg, 40 mg and 80 mg).
Blood samples for the measurement of plasma concentrations of (R)- and (S)-ketamine and (R)- and (S)-norketamine were collected pre-dose and at 0.033, 0.083, 0.167, 0.25, 0.333, 0.5, 0.75, 1, 1.25, 2, 2.5, 3, 4, 6, 8, 12, 16, and 24 hours post-dose for each study period.
All estimates for the parent and metabolite were consistent within each formulation or dose for the racemate, (R)-, and (S)-enantiomers. After IN administration, the estimates were slightly higher for the metabolite than the parent.

[2] = molecular target: NMDA receptors; conditions: cited from earlier work
[3] = acidic pH near 4.5
From the text: A Buffer may be used to control the pH of the nasal spray solution at, or near 4.5. […] Also, the local pH value inside the nasal cavity directly influences the rate and extent of drug absorption. […] Additionally, maintaining pH at or above 4.0 helps to reduce local nasal tract irritation. The buffer is optional.

[4] = Dose 10 mg, hydro-alcoholic composition, minimum-maximum
[5] = Dose 20 mg, hydro-alcoholic composition, minimum-maximum
[6] = human, plasma, other: intranasal, Dose 10 mg, hydro-alcoholic composition, minimum-maximum
[7] = human, plasma, other: intranasal, Dose 20 mg, hydro-alcoholic composition, minimum-maximum
[8] = human, plasma, other: intranasal, IN administration of racemic ketamine 20 mg
[9] = human, plasma, other: intranasal, IN administration of racemic ketamine 40 mg
[10] = human, plasma, other: intranasal, IN administration of racemic ketamine 80 mg
[11] = human, plasma, inhaled or intranasal, 20 mg, AUC (0-1 hr), intranasal, effective amount 20 mg
[12] = human, plasma, inhaled or intranasal, 20 mg, intranasal, effective amount 20 mg
[13] = human, plasma, inhaled or intranasal, intranasal, effective amount 20 mg
[14] = Dose 40 mg, hydro-alcoholic composition, minimum-maximum
[15] = human, plasma, other: intranasal, Dose 40 mg, hydro-alcoholic composition, minimum-maximum
[16] = IN administration of racemic ketamine 20 mg
[17] = IN administration of racemic ketamine 40 mg
[18] = IN administration of racemic ketamine 80 mg

Structure (SMILES) | AUC(0-1 hr) [1, 5] | AUC(0-4 hr) [1, 5] | Cmax [1, 7] | Tmax [1, 7] | bioavailability [1, 8] | bioavailability [1, 9] | bioavailability [1, 10] | Absolute Bioavailability (%) [1, 16] | Absolute Bioavailability (%) [1, 17] | Absolute Bioavailability (%) [1, 18] | also measured
CN[C@@]1(c2ccccc2Cl)CCCCC1=O [(R)-Ketamine] | 40.5-129 hr′ng/mL | 93.0-251 hr′ng/mL | 53.4 to 206 ng/mL | 10 to 30 min | 81.6% | 68.6% | 51.1% | – | – | – | AUC(0-1 hr) [1, 4]: 15.9-70.8 hr′ng/mL; AUC(0-4 hr) [1, 4]: 33.6-118 hr′ng/mL; Cmax [1, 6]: 26.5 to 155 ng/mL; Tmax [1, 6]: 4.98 to 30 min; Ki [2]: 1100 nM
CN[C@]1(c2ccccc2Cl)CCCCC1=O [(S)-Ketamine] | 30.9-96.7 hr′ng/mL | 66.9-181 hr′ng/mL | 41.3 to 161 ng/mL | 10 to 30 min | 82.4% | 68.9% | 51.5% | – | – | – | AUC(0-1 hr) [1, 4]: 12.8-55.8 hr′ng/mL; AUC(0-4 hr) [1, 4]: 26.4-90.4 hr′ng/mL; AUC(0-1 hr) ([1]; human, plasma, inhaled or intranasal, 10 mg, AUC (0-1 hr), intranasal, effective amount 10 mg): 12.8 to 55.8 ng·h/mL; AUC(0-t) ([1]; human, plasma, inhaled or intranasal, 10 mg, intranasal, effective amount 10 mg): 26.4 to 90.4 ng·h/mL; AUC(0-1 hr) [1, 11]: 30.9 to 96.7 ng·h/mL; AUC(0-t) [1, 12]: 66.9 to 181 ng·h/mL; Tmax ([1]; human, plasma, inhaled or intranasal, intranasal, effective amount 10 mg): 5 to 19.8 min; Tmax [1, 13]: 10 to 30 min; Cmax [1, 6]: 21.4 to 125 ng/mL; Tmax [1, 6]: 5 to 20 min; Ki [2]: 3200 nM
CNC1(c2ccccc2Cl)CCCCC1=O (racemic) [(RS)-Ketamine, (2-(2-chlorophenyl)-2-(methylamino)-cyclohexanone)] | 28.7-127 hr′ng/mL | 60.0-209 hr′ng/mL | 48 to 280 ng/mL | 4.98 to 30 min | 82.1% | 69.1% | 51.8% | – | – | – | AUC(0-1 hr) [1, 14]: 71.4-225 hr′ng/mL; AUC(0-4 hr) [1, 14]: 160-433 hr′ng/mL; AUC(0-1 hr) [1, 11]: 28.7 to 127 ng·h/mL; AUC(0-t) [1, 12]: 60 to 209 ng·h/mL; AUC(0-1 hr) ([1]; human, plasma, inhaled or intranasal, 40 milligrams, AUC (0-1 hr), intranasal, effective amount 40 milligrams): 71.4 to 225 ng·h/mL; AUC(0-t) ([1]; human, plasma, inhaled or intranasal, 40 milligrams, intranasal, effective amount 40 milligrams): 160 to 433 ng·h/mL; Tmax [1, 13]: 4.98 to 30 min; Tmax ([1]; human, plasma, inhaled or intranasal, intranasal, effective amount 40 milligrams): 10 to 30 min; Cmax [1, 15]: 94.7 to 367 ng/mL; Tmax [1, 15]: 10 to 30 min
NC1(c2ccccc2Cl)CCCCC1=O (racemic) [(RS)-Norketamine] | – | – | – | – | – | – | – | 94.4% | 78.8% | 54.8% | –
N[C@@]1(c2ccccc2Cl)CCCCC1=O [(R)-Norketamine] | – | – | – | – | – | – | – | 90.7% | 77.8% | 54.3% | –
CNC1(c2ccccc2Cl)CCCCC1=O.Cl (stereo not drawn) [Es/ketamine HCl] | – | – | – | – | – | – | – | – | – | – | stability of solution [3]: better stability
N[C@]1(c2ccccc2Cl)CCCCC1=O [(S)-Norketamine] | – | – | – | – | – | – | – | 92.4% | 77.8% | 54.9% | –
